One assay relates to TFEB. As to the kind of experiment: GFP-TFEB nuclear translocation (high-content screen, dose-response, confocal imaging). As to conditions: for TFEB nuclear accumulation by AMPK activators: GFP-TFEB HeLa cells; for hit status in the TFEB screen overlapping with the autophagy (GFP-LC3) screen: compounds added for 4 hr, overlap with top 30 hits of autophagy screen. Format: cell-based, human. How it is done: GFP-TFEB HeLa cells were seeded in 384-well plates. Compounds were added for 4 hr the following day. Bafilomycin A1 (250 nM) treated cells were used as positive controls and DMSO-treated cells as negative controls. […] Images were collected using 405 nm and 488 nm laser lines with DAPI and FITC emission filters. Images were analyzed using the GE IN Cell Analyzer Workstation software. Briefly, nuclei were segmented using the Hoechst channel and the cytoplasm was segmented using the GFP channel. For each cell, the mean GFP intensity in each compartment was measured and used to calculate the nuclear to cytoplasmic (N/C) TFEB-GFP ratio. The same method as mentioned above was used to generate the top 30 compounds with highest condensed activity values and robust Z score values.
GFP-TFEB HeLa cells treated with compounds or DMSO were fixed and stained with Hoechst. Images from at least 3 different fields per sample were acquired using a 40× objective on a Zeiss confocal microscope and analyzed with ImageJ. 20-30 cells were evaluated from each image for each sample, and 3 independent experiments were performed to generate the graphed values.

The test system of another assay is HeLa cells. As to the kind of experiment: Cellular ROS level (CellROX Green). Format: cell-based, human. As to conditions: 4 hrs. The source says:
SFIGS. 5A-I. Small-molecule activators of TFEB engage different sources of Ca. (SFIG. 5A) HeLa cells were pretreated with or without N-acetyl-cysteine (NAC) for 1 hr and then treated with tert-butyl hydroperoxide (TBHP) or AD for 4 hrs. TBHP and NAC were used as positive and negative controls. A ROS-sensitive DNA dye CellROX Green was used to detect cellular ROS levels after these treatments. Endogenous TFEB localization was also shown. (SFIG. 5B) Quantification of the fluorescent intensity of CellROX Green in cells treated as in a was done by a plate reader. (SFIG. 5C) Quantification of endogenous TFEB nuclear translocation in SFIG. 5A. (SFIG. 5D) Cells were pretreated with or without 25 μM IP3R inhibitor Xestosporine C (Xesto) for 1 hr and then treated with DG, AD and IKA for indicated time. Quantification of TFEB translocation was shown in SFIG. 5E-G (graphs represent mean±s.d. **p<0.01, ***p<0.001, ****p<0.0001). (SFIG. 5H-I) RNA-interference were used to knock down inositol […] receptor type 1 (IP3R1) in GFP-TFEB cells before they were treated with DG, AD and IKA. siLONRF1 was used as a negative control. TFEB translocation percentage was quantified from images as shown in SFIG. 5I (mean±s.d. for n=3 independent experiments, ****p<0.0001). Scale bar, 20 μm.

Another assay has as its system mTORC1. As to the kind of experiment: TSC2 dependence of mTORC1 inhibition and TFEB activation in p53-/- and p53-/-, TSC2-/- MEFs. Format: cell-based, mouse. As to conditions: p53-/- vs p53-/-.
In assay [1] the test system is mice under fed and fast conditions. As to the kind of experiment: Short-term starvation and chloroquine-induced acute hepatic lipid accumulation in mice. Format: in vivo, mouse. The note with it: overnight fast; CQ intraperitoneal; DG oral co-administration. How it is done:
SFIGS. […] (SFIG. 6A) The body weight (left y-axis, solid symbols) and food intake (right y-axis, open symbols) measured in normal-diet-fed mice treated with vehicle or 2.5 mg/kg DG. (SFIG. 6B) Drug release curves of AD (upper panel) and IKA (lower panel) in PBS. […] (SFIG. 6F) Cells were treated with various doses DG, AD and IKA for 4 hours, and cell viability was measured immediately or after 72 hours. Dose response curves were simulated using ImageJ. (SFIG. 6G) H&E staining of heart, spleen and kidney sections from mice treated with DG, AD, IKA and their corresponding controls. Scale bar, 100 μm. (SFIG. 6H) H&E staining of liver and heart sections as well as ORO and p62/SQSTM1 IHC staining of liver sections from mice under fed and fast conditions with orally injected DG and intraperitoneally injected CQ, individually and jointly, or their corresponding control (Saline). Scale bar, 50 μm. (SFIG. 6I) The body weight of mice after the treatment described in SFIG. 6H. (SFIGS. 6J-L) Total serum levels of triglyceride, cholesterol and glucose of mice after the treatment described in SFIG. 6G.

Entries after “also recorded” stand apart in the source; their conditions may differ.

`CN(C)C(=N)N=C(N)N` [metformin, reference compound]: the “TFEB nuclear accumulation by AMPK activators” value in the assay on TFEB is “sufficient to induce TFEB nuclear accumulation”. For the molecule `CC(C)(C)OO` [TBHP, tert-Butyl hydroperoxide, reference compound], the ROS production result in the assay on HeLa cells is given as “comparable ROS production”. As to `C[C@@H]1O[C@@H](O[C@@H]2C=C3CC[C@@H]4[C@H](CC[C@]5(C)[C@@H](c6ccc(=O)oc6)CC[C@]45O)[C@@]3(C)CC2)[C@H](O)[C@H](O)[C@H]1O` [proscillaridin A, reference compound], the “dependence of mTORC1 inhibition / TFEB activation on TSC2” value with mTORC1 is recorded as “independent”. In the assay on TFEB, the “hit status in the TFEB screen overlapping with the autophagy (GFP-LC3) screen” value was “top 18 hits; also recorded: top scoring hits”. On to `CCN(CC)CCCC(C)Nc1ccnc2cc(Cl)ccc12` (stereo not shown) [CQ, chloroquine], for which the “fast-induced hepatic lipid accumulation” value in assay [1] is listed as “exacerbated”.

For the molecule `C[C@@H]1C[C@@H]([C@H](O)CC2CC(=O)NC(=O)C2)C(=O)[C@@H](C)C1` [cycloheximide, reference compound], in the assay with TFEB, the “hit status in the TFEB screen overlapping with the autophagy (GFP-LC3) screen” value was “top 18 hits”.

Consider `NC(=O)c1ncn([C@@H]2O[C@H](COP(=O)(O)O)[C@@H](O)[C@H]2O)c1N` [AICAR, 5-aminoimidazole-4-carboxamide ribonucleotide, reference compound], for which the “TFEB nuclear accumulation by AMPK activators” value with TFEB was “sufficient to induce TFEB nuclear accumulation”.

(Values after patent US20200333357A1, “NOVEL TFEB PATHWAY AGONISTS FOR METABOLIC DISEASES AND AGEING” (The Board of Regents of the University of Texas System, priority 2017, published 2020).)
